Test [1] deals with T1, Neutrophil elastase (Homo sapiens, UniProt P08246).
T1 sequence (P08246 whole entry): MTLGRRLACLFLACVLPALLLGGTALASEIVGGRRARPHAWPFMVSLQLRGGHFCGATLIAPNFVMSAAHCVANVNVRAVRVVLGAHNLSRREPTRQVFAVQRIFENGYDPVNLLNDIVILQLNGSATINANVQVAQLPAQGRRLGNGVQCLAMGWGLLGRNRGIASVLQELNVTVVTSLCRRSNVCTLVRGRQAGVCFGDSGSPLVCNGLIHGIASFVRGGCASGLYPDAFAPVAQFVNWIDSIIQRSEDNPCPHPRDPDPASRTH
Description: Inhibitory concentration against human neutrophil elastase (HNE); No inhibition.

Test [2] has as its target T1, Neutrophil elastase. Description: Inhibitory concentration against human neutrophil elastase (HNE).
Test [3] concerns the target T2, Chymotrypsin-like elastase family member 2A (Sus scrofa, UniProt P08419).
T2 sequence (P08419 whole entry): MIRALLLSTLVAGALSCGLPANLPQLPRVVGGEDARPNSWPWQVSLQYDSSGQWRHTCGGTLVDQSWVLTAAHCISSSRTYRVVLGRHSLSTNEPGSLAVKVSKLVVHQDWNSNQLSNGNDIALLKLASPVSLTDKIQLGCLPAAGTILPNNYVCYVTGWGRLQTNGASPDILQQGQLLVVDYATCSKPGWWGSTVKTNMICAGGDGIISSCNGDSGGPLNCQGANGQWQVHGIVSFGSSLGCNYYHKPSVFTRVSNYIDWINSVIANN
Description: Inhibitory concentration against porcine pancreatic elastase (PPE); No inhibition.

Each structure is given as a SMILES string.

On to `CCC(C)[C@H]1C(=O)N(Cc2ccccc2)CCN1S(=O)(=O)c1ccc(C)cc1` (stereo partly specified), for which the IC50 (in general, the concentration needed to halve the response being measured) on Neutrophil elastase [1] is “Not Active”.
Consider `Cc1ccc(S(=O)(=O)N2CCN(Cc3ccccc3)C(=O)[C@@H]2CC(C)C)cc1`, for which the IC50 on Neutrophil elastase [2] was 28 µM.
Take `CC(C)C[C@@H]1NCCN(Cc2ccccc2)C1=O`: the IC50 entry (against Neutrophil elastase [1]; in test [3]) was “Not Active” each time.
Consider `CCC(C)[C@@H]1NCCN(Cc2ccccc2)C1=O` (stereo partly specified), for which the IC50 result (against Neutrophil elastase [1]; in test [3]) was “Not Active” in each case.
Consider `CC(C)C[C@H]1C(=O)NCCN1C(=O)OC(C)(C)C`, for which the 50% inhibitory concentration (IC50) entry (on Neutrophil elastase [1]; in test [3]) was “Not Active” throughout.
As to `CCC(C)[C@H]1C(=O)N(S(=O)(=O)c2ccc(C)cc2)CCN1S(=O)(=O)c1ccc(C)cc1` (stereo partly specified), the IC50 entry (on Neutrophil elastase [1]; in test [3]) was “Not Active” each time.
As for `CCC(C)[C@@H]1NCCNC1=O` (stereo partly specified), the IC50 result (against Neutrophil elastase [1]; in test [3]) was “Not Active” in each case.
In the case of `CCC(C)[C@H]1C(=O)NCCN1C(=O)OC(C)(C)C` (stereo partly specified), the IC50 result (against Neutrophil elastase [1]; in test [3]) was “Not Active” in each case.
`CC(C)C[C@@H]1NCCNC1=O`: the IC50 entry (at Neutrophil elastase [1]; in test [3]) was “Not Active” throughout.
